Reference: patent US20210330611A1, “THERAPY FOR NEUROLOGICAL DISEASES/DISORDERS” (priority 2020, published 2021)
Several values for one entry are separate records, joined by “and”; a condition that tells them apart may be missing. Equal entries are not always repeated. Structures can show the parent of a compound that is named as a salt. Where two headings read alike, the source gives them in different places.

How the values were obtained:
[1] = test system: LPS-induced microglia activation; test: Image-based assay of LPS-induced microglia activation (HTS and dose response); format: cell-based, rat
[2] = test system: fibrin- and LPS-induced microglia activation; test: cells; format: cell-based, rat; conditions: for inhibition at 10 µM: Rattus norvegicus, Microglia
[3] = test system: fibrin-induced microglia activation; test: Image-based assay of fibrin-induced microglia activation (HTS and dose response); format: cell-based, rat; conditions: for inhibition at 10 µM / IC50: Rattus norvegicus, Microglia; for inhibition at 10 µM: read-out: Fibrin % inhibition
[4] = Rattus norvegicus, Microglia, 48 h; read-out: LPS % inhibition
[5] = classification by fibrin and LPS inhibition in HTS
[6] = primary microglia HTS, fibrin stimulation, cell size >800 μm2 as marker of activation
[7] = Rattus norvegicus, Microglia, 48 h, primary microglia HTS, LPS stimulation, activation = cell size >800 μm2; read-out: LPS % inhibition
[8] = quadrant by fibrin and LPS inhibition in HTS of 1907 compounds
[9] = primary microglia HTS, fibrin stimulation, activation = cell size >800 μm2
[10] = Rattus norvegicus, Microglia, primary microglia HTS, LPS stimulation, compounds at 10 μM; read-out: LPS % inhibition
[11] = classification by fibrin and LPS inhibition, HTS at 10 μM
[12] = primary microglia HTS, fibrin stimulation, compounds at 10 μM
[13] = Rattus norvegicus, Microglia, primary HTS, 10 μM, LPS-stimulated primary microglia; read-out: LPS % inhibition
[14] = primary HTS, 10 μM, fibrin-stimulated primary microglia
[15] = Rattus norvegicus, Microglia, read-out: LPS % inhibition
[16] = Rattus norvegicus, Microglia, 48 h, read-out: LPS % inhibition
[17] = primary microglia HTS, LPS stimulation, compounds at 10 μM; 10 µM
[18] = quadrant by fibrin and LPS inhibition, HTS at 10 μM
[19] = Rattus norvegicus, Microglia, 48 h, primary microglia HTS, LPS stimulation; increased cell size (>800 μm^2) as marker of activation; read-out: LPS % inhibition
[20] = primary microglia HTS, fibrin stimulation, increased cell size (>800 μm^2) as marker of activation
[21] = HTS of 1907 compounds, quadrant by fibrin and LPS inhibition

CCN1CCN(C(=O)N[C@@H](C(=O)N[C@@H]2C(=O)N3[C@@H]2SC(C)(C)[C@@H]3C(=O)O)c2ccccc2)C(=O)C1=O [Piperacillin Sodium]
inhibition at 10 µM [1, 4]: 17% | Quadrant (FIG. 5b) [2, 5]: Q4 | LPS % cell toxicity (primary rat microglia; rat): 0% | inhibition at 10 µM [3, 6]: -25%

COCCCC/C(=N\OCCN)c1ccc(C(F)(F)F)cc1 [Fluvoxamine]
inhibition at 10 µM [1, 7]: -3% | Quadrant (FIG. 5b) [2, 8]: Q4 | LPS % cell toxicity (primary rat microglia; rat): 0% | inhibition at 10 µM [3, 9]: -8%

O=C(O[C@@H]1C[C@@H]2C[C@H]3C[C@H](C1)N2CC3=O)c1c[nH]c2ccccc12 [Dolasetron]
inhibition at 10 µM [1, 10]: -3% | Quadrant (FIG. 5b) [2, 11]: Q4 | LPS % cell toxicity (primary rat microglia; rat): 0% | inhibition at 10 µM [3, 12]: -19%

C[C@]12CCC(=O)C=C1C=C[C@@H]1[C@@H]2CC[C@@]2(C)[C@H]1CC[C@@]2(O)CCC(=O)O [Canrenoic Acid, Potassium Salt]
inhibition at 10 µM [1, 13]: 8% | Quadrant (FIG. 5b) ([2]; primary HTS, 10 μM): Q4 | LPS % cell toxicity (primary rat microglia; rat): 0% | inhibition at 10 µM [3, 14]: -8%

O=C1CCc2ccc(OCCCCN3CCN(c4cccc(Cl)c4Cl)CC3)cc2N1 [Aripiprazole]
Quadrant (FIG. 5b) [2]: Q4 | LPS % cell toxicity (primary rat microglia; rat): 0%

CNCCCC12CCC(c3ccccc31)c1ccccc12 [Maprotiline]
LPS % inhibition [1]: 78% | LPS % cell toxicity (primary rat microglia; rat): 2% | Fibrin % inhibition [3]: −4%

CCc1cc(C(N)=S)ccn1 [Ethionamide]
inhibition at 10 µM [1, 15]: 14% | Quadrant (FIG. 5b) [2]: Q4 | LPS % cell toxicity (primary rat microglia; rat): 0% | inhibition at 10 µM [3]: 17%

CC(C)c1cccc(C(C)C)c1O [Propofol]
inhibition at 10 µM [1, 16]: 11% | Quadrant (FIG. 5b) [2]: Q4 | LPS % cell toxicity (primary rat microglia; rat): 0% | inhibition at 10 µM [3]: -18%

CC(C)NCC(O)COc1cccc2ccccc12 (stereo not shown) [Propranolol]
inhibition at 10 µM [1, 16]: 2% | Quadrant (FIG. 5b) [2]: Q4 | LPS % cell toxicity (primary rat microglia; rat): 0% | Fibrin % inhibition [3]: −30%

C#C[C@]1(O)CC[C@H]2[C@@H]3CCC4=CC(=O)CC[C@]4(C)[C@H]3CC[C@@]21C [Ethisterone]
inhibition at 10 µM [1, 10]: 13% | Quadrant (FIG. 5b) [2, 11]: Q4 | LPS % cell toxicity (primary rat microglia; rat): 1% | inhibition at 10 µM [3, 12]: -5%

NC12CC3CC(CC(C3)C1)C2 [Amantadine]
LPS % inhibition [1, 17]: 3% and −5% | Quadrant (FIG. 5b) [2, 18]: Q4 | LPS % cell toxicity (primary rat microglia; rat): 0%

C[C@@H]1C[C@@H]([C@H](O)CC2CC(=O)NC(=O)C2)C(=O)[C@@H](C)C1 [Cycloheximide]
inhibition at 10 µM [1, 19]: 123% | Quadrant (FIG. 5b) [2, 8]: Q2 | LPS % cell toxicity (primary rat microglia; rat): 45% | inhibition at 10 µM [3, 20]: 108%

CCN(CC)C(=O)N[C@H]1C=C2c3cccc4[nH]cc(c34)C[C@H]2N(C)C1 [Lisuride]
Quadrant (FIG. 5b) [2]: Q4 | LPS % cell toxicity (primary rat microglia; rat): 0%

CC#C[C@]1(O)CC[C@H]2[C@@H]3CCC4=CC(=O)CCC4=C3[C@@H](c3ccc(N(C)C)cc3)C[C@@]21C [Mifepristone]
Quadrant (FIG. 5b) [2, 8]: Q4 | LPS % cell toxicity (primary rat microglia; rat): 0% | inhibition at 10 µM [3, 20]: 12%

Cn1c(=O)c2c(ncn2C)n(C)c1=O [Caffeine]
inhibition at 10 µM [1, 15]: 10% | Quadrant (FIG. 5b) [2]: Q4 | LPS % cell toxicity (primary rat microglia; rat): 0% | inhibition at 10 µM [3]: 2%

O=P1(NCCCl)OCCCN1CCCl (stereo not shown) [Ifosfamide]
inhibition at 10 µM [1, 7]: 10% | Quadrant (FIG. 5b) [2, 8]: Q4 | LPS % cell toxicity (primary rat microglia; rat): 0% | inhibition at 10 µM [3, 9]: -11%

Cc1ccc(O)c([C@H](CCN(C(C)C)C(C)C)c2ccccc2)c1 [Tolterodine]
inhibition at 10 µM [1, 15]: 15% | Quadrant (FIG. 5b) [2]: Q4 | LPS % cell toxicity (primary rat microglia; rat): 0% | inhibition at 10 µM [3]: -36%

CC(=O)N[C@@H](CS)C(=O)O [Acetylcysteine]
inhibition at 10 µM [1, 10]: 7% | LPS % inhibition [1, 17]: 13% | Quadrant (FIG. 5b) [2, 18]: Q4 | LPS % cell toxicity (primary rat microglia; rat): 0%

CC[C@H]1CN2CCc3cc(OC)c(OC)cc3[C@@H]2C[C@@H]1C[C@H]1NCCc2cc(OC)c(OC)cc21 [Emetine, Emetine Dihydrochloride]
LPS % inhibition [1]: 115% | Quadrant (FIG. 5b) [2]: Q2 | LPS % cell toxicity (primary rat microglia): 46% | Fibrin % inhibition [3]: 117%

CCOC(=O)C1=C(COCCN)NC(C)=C(C(=O)OC)C1c1ccccc1Cl (stereo not shown) [Amlodipine]
inhibition at 10 µM [1, 19]: 59% | inhibition at 10 µM [1, 10]: 36% | Quadrant (FIG. 5b) [2, 8]: Q1 | Quadrant (FIG. 5b) [2, 18]: Q4 | LPS % cell toxicity (primary rat microglia; rat): 2% | inhibition at 10 µM [3, 12]: -17% | inhibition at 10 µM [3, 20]: -29%

OCCOCCN1CCN(C2=Nc3ccccc3Sc3ccccc32)CC1 [Quetiapine]
inhibition at 10 µM [1, 16]: 13% | Quadrant (FIG. 5b) [2]: Q4 | LPS % cell toxicity (primary rat microglia; rat): 0% | inhibition at 10 µM [3]: -2%

CC(=O)Oc1cc2c(s1)CCN(C(C(=O)C1CC1)c1ccccc1F)C2 (stereo not shown) [Prasugrel]
inhibition at 10 µM [1, 4]: 22% | Quadrant (FIG. 5b) [2, 5]: Q4 | LPS % cell toxicity (primary rat microglia; rat): 1% | inhibition at 10 µM [3, 6]: 15%

COc1cc2ncnc(Nc3ccc(F)c(Cl)c3)c2cc1OCCCN1CCOCC1 [Gefitinib]
Quadrant (FIG. 5b) [2]: Q4 | LPS % cell toxicity (primary rat microglia; rat): 0%

COc1cc([C@@H]2c3cc4c(cc3[C@@H](O[C@@H]3O[C@@H]5CO[C@@H](C)O[C@H]5[C@H](O)[C@H]3O)[C@H]3COC(=O)[C@H]23)OCO4)cc(OC)c1O [Etoposide]
inhibition at 10 µM [1, 10]: 15% | Quadrant (FIG. 5b) [2, 11]: Q4 | LPS % cell toxicity (primary rat microglia; rat): 0% | inhibition at 10 µM [3, 12]: 30%

CCN(CC)CCNC(=O)c1cc(Br)c(N)cc1OC [Bromopride]
inhibition at 10 µM [1, 13]: 4% | Quadrant (FIG. 5b) ([2]; primary HTS, 10 μM): Q4 | LPS % cell toxicity (primary rat microglia; rat): 0% | inhibition at 10 µM [3, 14]: -2%

NCCc1c[nH]cn1 [Histamine]
inhibition at 10 µM [1, 16]: 27% | Quadrant (FIG. 5b) [2]: Q4 | LPS % cell toxicity (primary rat microglia; rat): 0% | inhibition at 10 µM [3]: 21%

CCC1NC(=O)c2cc(S(N)(=O)=O)c(Cl)cc2N1 (stereo not shown) [Quinethazone]
inhibition at 10 µM [1, 4]: 17% | Quadrant (FIG. 5b) [2, 5]: Q4 | LPS % cell toxicity (primary rat microglia; rat): 1% | inhibition at 10 µM [3, 6]: 15%

O=C1c2c(O)ccc(O)c2C(=O)c2c(NCCNCCO)ccc(NCCNCCO)c21 [Mitoxantrone]
inhibition at 10 µM [1, 10]: 122% | Quadrant (FIG. 5b) [2, 18]: Q2 | LPS % cell toxicity (primary rat microglia; rat): 40% | inhibition at 10 µM [3, 12]: 113%

CC(Cc1ccccc1)(NC(=O)CN)c1ccccc1 (stereo not shown) [Remacemide Hydrochloride]
inhibition at 10 µM [1, 16]: 13% | Quadrant (FIG. 5b) [2]: Q4 | LPS % cell toxicity (primary rat microglia; rat): 0% | inhibition at 10 µM [3]: -21%

NC(=O)c1ncn([C@@H]2O[C@H](CO)[C@@H](O)[C@H]2O)n1 [Ribavirin, reference compound]
inhibition at 10 µM [1, 16]: 107% | IC50 ([1]; Rattus norvegicus, Microglia, 48 h, read-out: LPS IC50): 2 µM | IC50 ([1]; Rattus norvegicus, Microglia, read-out: LPS IC50 (uM)): 2 µM | IC50 ([1]; Rattus norvegicus, Microglia, read-out: LPS IC50 (uM) (Suppl. Table 7)): 2 µM | Quadrant (FIG. 5b) [2]: Q2 | inhibition at 10 µM ([2]; read-out: Cherry-picked Hit (Suppl. Table 7)): > 50% | inhibition at 10 µM ([2]; read-out: Hit): > 50% | LPS % cell toxicity (primary rat microglia; rat): 3% | IC50 ([3]; 48 h, read-out: Fibrin IC50): 1 µM | inhibition at 10 µM [3]: 102% | IC50 ([3]; read-out: Fibrin IC50 (uM)): 1 µM | IC50 ([3]; read-out: Fibrin IC50 (uM) (Suppl. Table 7)): 1 µM

Cc1ncc(C[n+]2csc(CCO)c2C)c(N)n1 [Thiamine]
Quadrant (FIG. 5b) [2]: Q4 | LPS % cell toxicity (primary rat microglia; rat): 0%

CN(C)CCCN1c2ccccc2Sc2ccc(C(F)(F)F)cc21 [Triflupromazine]
LPS % cell toxicity (primary rat microglia; rat): 1%

O=C(O)C(O)C(O)C(=O)O.OCc1cccnc1 (stereo not shown) [Nicotinyl Alcohol Tartrate]
Quadrant (FIG. 5b) [2, 8]: Q4 | LPS % cell toxicity (primary rat microglia; rat): 0%

C[C@]12CC[C@@H]3c4ccc(O)cc4CC[C@H]3[C@@H]1CC[C@@H]2O [Estradiol]
Quadrant (FIG. 5b) [2, 11]: Q4 | LPS % cell toxicity (primary rat microglia; rat): 0%

Cn1nnc2c(C(N)=O)ncn2c1=O [Temozolomide]
Quadrant (FIG. 5b) [2, 21]: Q4 | LPS % cell toxicity (primary rat microglia; rat): 0% | Fibrin % inhibition ([3]; primary microglia HTS, 10 μM, fibrin-stimulated, cell size >800 μm^2 as marker of activation): −31% and −26%

CC(C)NCC(O)COc1ccc(CCOCC2CC2)cc1 (stereo not shown) [Betaxolol]
Quadrant (FIG. 5b) [2]: Q4 | LPS % cell toxicity (primary rat microglia; rat): 0%

CN1CCN(CCCN2c3ccccc3Sc3ccc(Cl)cc32)CC1 [Prochlorperazine]
inhibition at 10 µM [1, 16]: 17% | LPS % cell toxicity (primary rat microglia; rat): 1% | inhibition at 10 µM [3]: 6%

CCCc1nc(C)c2c(=O)[nH]c(-c3cc(S(=O)(=O)N4CCN(CC)CC4)ccc3OCC)nn12 [Vardenafil]
inhibition at 10 µM ([1]; Rattus norvegicus, Microglia, primary microglia HTS, 10 μM, LPS-stimulated, cell size >800 μm^2 as marker of activation; read-out: LPS % inhibition): 12% | LPS % inhibition ([1]; primary microglia HTS, 10 μM, LPS-stimulated, cell size >800 μm^2 as marker of activation): 13% | Quadrant (FIG. 5b) [2, 21]: Q4 | LPS % cell toxicity (primary rat microglia; rat): 0%

Cc1nc2n(c(=O)c1CCN1CCC(c3noc4cc(F)ccc34)CC1)CCCC2 [Risperidone]
Quadrant (FIG. 5b) [2]: Q4 | LPS % cell toxicity (primary rat microglia; rat): 0%

Clc1ccc2c(c1)CCc1cccnc1C2=C1CCNCC1 [Desloratadine]
Quadrant (FIG. 5b) [2]: Q4 | LPS % cell toxicity (primary rat microglia; rat): 0%
